In patent US7307063B2, “Melanocortin metallopeptides for treatment of sexual dysfunction” (Palatin Technologies, Inc., priority 2001, dated 2007):
Several values for one entry are separate records, joined by “and”; a condition that tells them apart may be missing. Equal values may be shown once. Non-standard residues stand in square brackets, D forms with d. No end group written: not given here. *: point of attachment. Bip = N[C@@H](Cc1ccc(-c2ccccc2)cc1)C(=O)O; dBip = N[C@H](Cc1ccc(-c2ccccc2)cc1)C(=O)O; dDip = N[C@@H](C(=O)O)C(c1ccccc1)c1ccccc1; Ac6c = NC1(C(=O)O)CCCCC1; Heptanoyl = CCCCCCC(=O)*; Nle = CCCC[C@H](N)C(=O)O; Bn = c1ccc(C*)cc1

Columns and labels:
[1] = biological target: T1, MC4-R (Homo sapiens, UniProt P32245); assay: Competitive binding assay: inhibition of 125I-NDP-α-MSH binding to HEK-293 membranes with cloned human receptor subtype 4; settings: Table 6, mean of triplicate
T1 construct: expressed in transfected cells; host or cells: HEK-293
T1 sequence (P32245 whole entry): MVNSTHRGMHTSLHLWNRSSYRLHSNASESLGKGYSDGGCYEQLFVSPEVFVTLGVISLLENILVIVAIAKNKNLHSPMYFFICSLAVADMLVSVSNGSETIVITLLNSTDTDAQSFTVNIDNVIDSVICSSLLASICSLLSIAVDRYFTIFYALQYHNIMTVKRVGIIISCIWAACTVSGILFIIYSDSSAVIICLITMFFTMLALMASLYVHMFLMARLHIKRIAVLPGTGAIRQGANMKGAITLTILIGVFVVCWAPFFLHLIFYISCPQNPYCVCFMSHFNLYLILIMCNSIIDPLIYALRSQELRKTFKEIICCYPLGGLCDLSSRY
Description: (§1) Rhenium-complexed metallopeptides of the formulas given in Table 1 were prepared, with the metallopeptides complexed with rhenium using the rhenium transfer agent ReOCl3(PPh3)2 in the presence of 1,8-Diazabicyclo[5,4,0] undec-7-ene as a base, as disclosed in International Application PCT/US00/16396, filed Jun. 14, 2000, Melanocortin Metallopeptide Constructs, Combinatorial Libraries and Applications, incorporated by reference herein. Affinities of compounds were measured using membranes from HEK-293 cells containing cloned human melanocortin receptor subtypes 3, 4 and 5. MC1-R membranes were isolated from B16—F10 mouse melanoma cells. The assay tube also contained a chosen concentration of the test peptide of this invention, complexed to a rhenium metal ion as indicated, for determining its efficacy in inhibiting the binding of ^125I-NDP-α-MSH to its receptor. Non-specific binding was measured by complete inhibition of binding of ^125I-NDP-α-MSH in the assay with the presence of 1 μM α-MSH. 100% specific binding was defined as the difference in radioactivity (cpm) bound to cell membranes in the absence and presence of 1 μM α-MSH. The cpm obtained in presence of test compounds were normalized with respect to 100% specific binding to determine the percent inhibition of ^125I-NDP-α-MSH binding.
(§2) Peptide sequences set forth in Table 6 were prepared using conventional synthetic means. The resulting sequences were rhenium-complexed to form metallopeptides, with the metallopeptides complexed with rhenium using the rhenium transfer agent ReOCl3(PPh3)2 in the presence of 1,8-Diazabicyclo[5,4,0] undec-7-ene as a base. Percent inhibition was determined as in Example 1 using the Re-complexed metallopeptides, using the same methods as described therein. All measures are means of triplicate determinations.

[2] = biological target: T2, hMC2-R (Homo sapiens, UniProt P41968); assay: Competitive binding assay of additional compounds, Table 6 hMC2-R; settings: 1 μM, mean of triplicate
T2 construct: expressed in transfected cells; host or cells: HEK-293
T2 sequence (P41968 whole entry): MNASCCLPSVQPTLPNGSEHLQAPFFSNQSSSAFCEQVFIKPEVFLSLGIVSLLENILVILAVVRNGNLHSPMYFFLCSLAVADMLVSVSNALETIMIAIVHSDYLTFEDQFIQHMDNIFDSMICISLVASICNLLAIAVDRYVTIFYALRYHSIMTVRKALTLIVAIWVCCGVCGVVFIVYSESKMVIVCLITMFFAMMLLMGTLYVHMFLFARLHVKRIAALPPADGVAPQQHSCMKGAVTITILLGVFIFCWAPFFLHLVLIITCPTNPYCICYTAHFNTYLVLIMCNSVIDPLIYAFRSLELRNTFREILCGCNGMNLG
Description: [The source words this procedure for another target and reports this target under the same test.] as §1, §2

[3] = biological target: T3, MC1-R (Mus musculus, UniProt Q01727); assay: Competitive binding assay: inhibition of 125I-NDP-α-MSH binding to membranes from B16-F10 mouse melanoma cells; settings: Table 6, mean of triplicate
T3 construct: MC1-R membranes were isolated from B16—F10 mouse melanoma cells; endogenous in cells; host or cells: B16-F10 mouse melanoma cells
T3 sequence (Q01727 whole entry): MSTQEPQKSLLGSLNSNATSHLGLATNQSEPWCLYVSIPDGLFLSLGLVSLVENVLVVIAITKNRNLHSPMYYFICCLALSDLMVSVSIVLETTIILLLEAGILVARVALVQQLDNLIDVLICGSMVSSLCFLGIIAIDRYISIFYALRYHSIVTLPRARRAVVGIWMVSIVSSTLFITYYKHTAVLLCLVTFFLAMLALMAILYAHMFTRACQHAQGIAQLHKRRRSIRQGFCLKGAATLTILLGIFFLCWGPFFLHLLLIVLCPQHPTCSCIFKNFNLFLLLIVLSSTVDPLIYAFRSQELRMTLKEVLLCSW
Description: as §1, §2

[4] = biological target: T4, hMC5-R (Homo sapiens, UniProt P33032); assay: Competitive binding assay: inhibition of 125I-NDP-α-MSH binding to HEK-293 membranes with cloned human receptor subtype 5; settings: Table 6; 1 μM; mean of triplicate
T4 construct: expressed in transfected cells; host or cells: HEK-293
T4 sequence (P33032 whole entry): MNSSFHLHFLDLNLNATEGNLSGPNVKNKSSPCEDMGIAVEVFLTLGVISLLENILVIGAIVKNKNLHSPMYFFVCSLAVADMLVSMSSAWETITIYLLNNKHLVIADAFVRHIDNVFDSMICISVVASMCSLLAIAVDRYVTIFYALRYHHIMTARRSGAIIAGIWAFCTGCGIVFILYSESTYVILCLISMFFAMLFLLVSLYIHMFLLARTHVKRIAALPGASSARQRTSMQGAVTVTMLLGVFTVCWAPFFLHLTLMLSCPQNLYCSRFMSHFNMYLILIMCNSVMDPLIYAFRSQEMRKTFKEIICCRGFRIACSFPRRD
Description: as §1, §2

[5] = 1 μM, listed as 3′-Bromo phenyl acetyl-Arg-Arg-D-Phe(4′-Cl)-Cys-Nal 2′-NH2, 1 µM
[6] = 1 μM, listed as Hept-Ser(Bzl)-D-Nal 2′-Arg-Nal 2′-Cys-NH2, 1 µM

% Inhibition of Binding hMC4-R ([1]; 1 μM) | % Inhibition of Binding hMC2-R [2] [%] | % Inhibition of Binding MC1-R ([3]; 1 μM) | Substance | other results
69% | 26 | 15% | Tic-D-Phe(2′-Cl)-Arg-Trp-Cys-NH2 | % Inhibition of Binding hMC5-R [4]: 59%
17% | 0 | 5% | 3′-Bromo phenyl acetyl-Arg-Trp-D-Phe(4′-Cl)-Cys-NH2 | % Inhibition of Binding hMC5-R [4]: 21%
0% | 0 | 39% | Amb-D-Phe-Arg-Cys-Trp-NH2 | % Inhibition of Binding hMC5-R [4]: 1%
59% | 47 | 90% | 3′-Bromo phenyl acetyl-Arg-Ala-D-Phe(4′-Cl)-Cys-NH2 | % Inhibition of Binding hMC5-R [4]: 15%
18% | 4 | 9% | Aic-D-Phe-Arg-Trp-Cys-NH2 | % Inhibition of Binding hMC5-R [4]: 38%
99% and 93% | 87 | 94% and 84% | 3′-Br Phenyl acetyl-Arg-Arg-D-Phe(4′-Me)-Cys-NH2 | % Inhibition of Binding hMC5-R [4]: 88%
14% | 0 | 92% | 1-amino-1-cyclohexane carboxyl-D-Phe-Arg-Cys-Trp-NH2 ([Ac6c][dF]RCW-NH2; N-terminus assumed; SMILES N=C(N)NCCC[C@H](NC(=O)[C@@H](Cc1ccccc1)NC(=O)C1(N)CCCCC1)C(=O)N[C@@H](CS)C(=O)N[C@@H](Cc1c[nH]c2ccccc12)C(N)=O) | % Inhibition of Binding hMC5-R [4]: 65%
2% | 8 | 58% | [dDip][dF]RCW-NH2 | % Inhibition of Binding hMC5-R [4]: 53%
47% | 3 | 93% | Ac-Nle-Ala-His-D-Phe-Arg-D-Nal 1′-Cys-NH2 | % Inhibition of Binding hMC5-R [4]: 5%
 | 100 | 35% | Ac-[Nle]AH[dF]R[Bip]C-NH2 | 
13% | 3 | 43% | D-Tiq-D-Phe-Arg-Cys-Trp-NH2 | % Inhibition of Binding hMC5-R [4]: 39%
 | 100 | 72% | Ac-[Nle]AH[dBip]RCW-NH2 | 
13% | 0 | 53% | [dP][dF]RCW-NH2 | % Inhibition of Binding hMC5-R [4]: 67%
8% | 1 | 0% | D-Igl-D-Nal 2′-Arg-Cys-NH2 | % Inhibition of Binding hMC5-R [4]: 41%
96% | 95 | 90% | 3′-Br Phenyl acetyl-Arg-Arg-D-Phe(4′-Cl)-Cys-Nal 2′-NH2 | % Inhibition of Binding hMC4-R [1, 5]: 94%; % Inhibition of Binding hMC2-R ([2]; listed as 3′-Bromo phenyl acetyl-Arg-Arg-D-Phe(4′-Cl)-Cys-Nal 2′-NH2, 1 µM): 55%; % Inhibition of Binding MC1-R [3, 5]: 79%
 | 100 | 77% | Ac-[Nle]AH[dBip]RC[Bip]-NH2 | 
 | 100 | 82% | Ac-[Nle]AH[dF]RC[Bip]-NH2 | 
91% | 41 | 28% | Heptanoyl-Ser(Bzl)-D-Nal 2′-Arg-Nal 2′-Cys-NH2 | % Inhibition of Binding hMC4-R [1, 6]: 92%; % Inhibition of Binding hMC2-R ([2]; listed as Hept-Ser(Bzl)-D-Nal 2′-Arg-Nal 2′-Cys-NH2, 1 µM): 62%; % Inhibition of Binding MC1-R [3, 6]: 25%
 | 100 | 99% | Ac-[Nle]AH[dBip]RWC-NH2 | 
 | 0 | 30% | Heptanoyl-S(Bn)[dBip]R[Bip]C-NH2 | 
 | 100 | 95% | Ac-[Nle]AH[dBip]R[Bip]C-NH2 | 
 | 0 | 84% | Heptanoyl-S(Bn)[dBip]RWC-NH2 | 
97% |  | 99% | Heptanoyl-P[dF]RWCK-NH2 | 
95% |  | 22% | 3′-Br Phenyl acetyl-Arg-Ala-D-Phe(4′-CF3)-Cys-Trp-NH2 | 
52% |  | 97% | 3′-Cl-Phenylacetyl-Arg-Arg-D-Phe(4′-CH2PO3Et3)-Cys-Trp-NH2 | 
 |  |  | Heptanoyl-Ser(Bzl)-D-Phe(4′-Cl)-Arg-Phe(2′-Cl)-Cys-NH2 | % Inhibition of Binding hMC4-R ([1]; 0.1 μM): 28%; % Inhibition of Binding MC1-R ([3]; 0.1 μM): 9%

% Inhibition of Binding hMC4-R ([1]; 1 μM) | % Inhibition of Binding hMC2-R [2] [%] | % Inhibition of Binding MC1-R ([3]; 1 μM) | Substance | other results
41% |  | 60% | PhCO-D-Phe(2′-Cl)-Lys-Nal 2′-Cys-NH2 | 
97% |  | 49% | Ac-Ser(Bzl)-D-Phe(4′-Cl)-Arg-Nal 2′-Cys-NH2 | 
22% |  | 11% | Ph(CH2)-CO-D-Phe(2′-Cl)-Lys-Nal 2′-Cys-NH2 | 
 |  |  | D-Phe(4′-Cl)-Arg-Nal 2′-Cys-Lys-NH2 | % Inhibition of Binding hMC4-R ([1]; 0.01 μM): 73%; % Inhibition of Binding MC1-R ([3]; 0.01 μM): 43%
5% |  | 46% | Heptanoyl-Ser(Bzl)-D-Phe(4′-Cl)-Gly-Nal 2′-Cys-Lys-NH2 | 
 |  |  | Heptanoyl-Ser(Bzl)-D-Phe(4′-Cl)-Arg-Phe(3′-F)-Cys-NH2 | % Inhibition of Binding hMC4-R ([1]; 0.1 μM): 43%; % Inhibition of Binding MC1-R ([3]; 0.1 μM): 19%
0% |  | 27% | Heptanoyl-Ser(Bzl)-D-Nal 2′-Gly-Trp-Cys-Lys-NH2 | 
82% |  | 27% | Heptanoyl-Ser(Bzl)-D-Phe(2′-Br)-Lys-Nal 2′-Cys-NH2 | 
99% |  | 35% | Ser(Bzl)-D-Phe(4′-Cl)-Arg-Nal 2′-Cys-NH2 | 
41% |  | 87% | Ac-[Nle]AH[dF]RW[dC]K-NH2 | 
13% |  | 25% | Ac-KA[dF][dC]RW-NH2 | 
42% |  | 23% | [dF]RW[dC]K-NH2 | 
61% |  | 97% | 3′-Br-Phenylacetyl-Arg-Arg-D-Phe(4′-CH2PO3Et3)-Cys-Trp-NH2 | 
15% |  | 16% | Heptanoyl-Ser(Bzl)-D-Phe(2′-Cl)-Lys-Phg-Cys-NH2 | 
 |  |  | Heptanoyl-Ser(Bzl)-D-Phe(4′-Cl)-Arg-Tyr-Cys-NH2 | % Inhibition of Binding hMC4-R ([1]; 0.1 μM): 13%; % Inhibition of Binding MC1-R ([3]; 0.1 μM): 6%
99% |  | 85% | 3′-Cl Phenyl acetyl-Arg-Arg-D-Phe(4′-CF3)-Cys-Trp-NH2 | 
98% |  | 100% | Heptanoyl-H[dF]RWCK-NH2 | 
0% |  | 22% | Ac-[Nle]A[dF][dC]R-NH2 | 
12% |  | 21% | FR[dW]CK-NH2 | 
 |  |  | Heptanoyl-Hphe-D-Phe(4′-Cl)-Arg-Trp-Cys-NH2 | % Inhibition of Binding hMC4-R ([1]; 0.1 μM): 80%; % Inhibition of Binding MC1-R ([3]; 0.1 μM): 45%
6% |  | 12% | Heptanoyl-Ser(Bzl)-D-Phe(2′-Cl)-Lys-Hphe-Cys-NH2 | 
 |  |  | Ser(Bzl)-D-Phe(4′-Cl)-Arg-Nal 2′-Cys-Lys-NH2 | % Inhibition of Binding hMC4-R ([1]; 0.1 μM): 95%; % Inhibition of Binding MC1-R ([3]; 0.1 μM): 33%
 | 5 | 65% | Heptanoyl-Ser(Bzl)-D-Phe(4′-Cl)-Arg-Bip-Cys-NH2 | 
91% |  | 62% | Heptanoyl-Ser(Bzl)-D-Phe(2′-Cl)-Lys-Nal 2′-Cys-NH2 | 
 |  |  | Heptanoyl-Ser(Bzl)-D-Phe(4′-Cl)-Arg-Asp(OcHx)-Cys-NH2 | % Inhibition of Binding hMC4-R ([1]; 0.1 μM): 25%; % Inhibition of Binding MC1-R ([3]; 0.1 μM): 15%
